Assay [1] in a line: Luminescence Cell-Based Dose Confirmation HTS to Identify Activators of 5'UTR Stem-Loop Driven Alpha-Synuclein mRNA Translation in H4 Neuroglioblastoma Cells. [Related pubchem assays: 1829 (Project Summary), 1814 (Primary HTS)]. The format is functional.
Assay [2] is described as follows: Luminescence Cell-Based Dose Response HTS to Identify Activators of Luciferase Translation or Activity in H4 […] Cells. [Related pubchem assays: 1829 (Project Summary), 1814 (Primary HTS)]. The format is functional.
The subject of the next assay is H4. Description: Luminescence Cell-Based Dose Response HTS to Identify Activators of 5'UTR Stem-Loop Driven Prion Protein mRNA Translation in H4 Neuroglioblastoma Cells. [Related pubchem assays: 1829 (Project Summary), 1814 (Primary HTS)]. Type of assay: functional. The conditions noted are these: Homo sapiens.
For a further assay, the system named is HeLa. Description: ATP-based viability loss in HeLa cells – cell-based, CellTiter-Glo luminescence, cherry-pick samples, cytotoxicity control for MITF activator project, dose response (AID 540259). Type of assay: functional. The conditions noted are these: Homo sapiens. A general note: Cellular ATP, detected with luciferase, serves as a proxy for viable cell number.

In assay [3] the target is T1, Tyrosine-protein phosphatase non-receptor type 11 (Homo sapiens, UniProt Q06124).
T1 sequence (Q06124 whole entry): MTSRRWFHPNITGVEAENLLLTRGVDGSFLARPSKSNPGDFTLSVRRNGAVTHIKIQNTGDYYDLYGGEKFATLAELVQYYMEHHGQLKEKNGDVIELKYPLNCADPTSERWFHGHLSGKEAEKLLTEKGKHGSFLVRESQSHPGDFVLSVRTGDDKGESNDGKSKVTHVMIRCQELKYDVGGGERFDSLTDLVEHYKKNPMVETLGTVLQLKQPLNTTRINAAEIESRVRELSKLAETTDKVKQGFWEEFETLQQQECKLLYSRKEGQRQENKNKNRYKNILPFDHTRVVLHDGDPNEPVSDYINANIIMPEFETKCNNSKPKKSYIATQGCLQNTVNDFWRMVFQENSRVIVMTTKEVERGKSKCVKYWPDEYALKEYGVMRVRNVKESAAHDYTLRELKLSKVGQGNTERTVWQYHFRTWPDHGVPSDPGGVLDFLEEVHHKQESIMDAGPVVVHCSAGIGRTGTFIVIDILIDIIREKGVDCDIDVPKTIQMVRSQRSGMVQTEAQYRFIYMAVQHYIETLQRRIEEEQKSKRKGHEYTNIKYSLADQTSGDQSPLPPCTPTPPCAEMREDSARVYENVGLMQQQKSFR
Description: PTPN11 enzyme inhibitors – biochemical, selectivity assay for STEP inhibitor project, dose response (AID 602367). The format is functional. The settings on record: read-out: IC50_Mean.

The target in assay [4] is T2, Tyrosine-protein phosphatase non-receptor type 5 (Homo sapiens, UniProt P54829).
T2 sequence (P54829 whole entry): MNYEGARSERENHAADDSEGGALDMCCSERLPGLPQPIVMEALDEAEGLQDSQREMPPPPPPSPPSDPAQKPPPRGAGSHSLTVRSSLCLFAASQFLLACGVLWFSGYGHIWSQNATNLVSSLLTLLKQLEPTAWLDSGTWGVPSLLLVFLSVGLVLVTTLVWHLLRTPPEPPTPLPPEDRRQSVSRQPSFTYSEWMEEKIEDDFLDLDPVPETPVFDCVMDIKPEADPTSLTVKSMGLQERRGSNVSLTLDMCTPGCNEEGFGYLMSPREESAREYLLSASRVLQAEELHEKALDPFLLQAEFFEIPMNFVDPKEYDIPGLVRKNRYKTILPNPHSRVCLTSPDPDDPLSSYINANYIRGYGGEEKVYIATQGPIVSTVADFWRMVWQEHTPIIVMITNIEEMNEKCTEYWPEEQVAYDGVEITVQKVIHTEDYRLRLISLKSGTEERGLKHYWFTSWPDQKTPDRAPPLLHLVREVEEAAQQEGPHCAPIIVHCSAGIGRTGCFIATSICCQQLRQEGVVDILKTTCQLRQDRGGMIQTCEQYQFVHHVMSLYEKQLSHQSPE
Description: PTPN5 enzyme inhibition – biochemical, fluorescence intensity, uHTS hits, confirmation (AID 602372). Type of assay: functional. The conditions noted are these: read-out: IC50_Mean.

Assay [5] concerns the target Dual specificity protein phosphatase 3 (Homo sapiens, UniProt P51452). Description: VHR phosphatase inhibition, dose response, selectivity assay for STEP inhibitor project, biochemical (AID 602374). The settings on record: read-out: IC50_Mean. Type of assay: functional.
Assay [6] in a line: NIH-3T3 fibroblast cytotoxicity, dose response, cytotoxicity control, cell-based, fluorescence, Alamar Blue, secondary assay (AID 2327).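 Further: NIH-3T3 mouse fibroblasts cultured with fluconazole at 8 µg/mL.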 Type of assay: functional. On the technique in general: The colour change of resazurin is a common sign of viable cells or microbes.
Assay [7] is described as follows: fluconazole-exposed Candida albicans growth modulators – fluorescence, retest, confirmation (AID 2467). The format is functional, cell-based.
Assay [8] concerns the target T3, Serine/threonine-protein phosphatase (Candida dubliniensis (strain CD36 / CBS 7987 / NCPF 3949 / NRRLY-17841) (Yeast), UniProt B9W6M3).
T3 sequence (B9W6M3 whole entry): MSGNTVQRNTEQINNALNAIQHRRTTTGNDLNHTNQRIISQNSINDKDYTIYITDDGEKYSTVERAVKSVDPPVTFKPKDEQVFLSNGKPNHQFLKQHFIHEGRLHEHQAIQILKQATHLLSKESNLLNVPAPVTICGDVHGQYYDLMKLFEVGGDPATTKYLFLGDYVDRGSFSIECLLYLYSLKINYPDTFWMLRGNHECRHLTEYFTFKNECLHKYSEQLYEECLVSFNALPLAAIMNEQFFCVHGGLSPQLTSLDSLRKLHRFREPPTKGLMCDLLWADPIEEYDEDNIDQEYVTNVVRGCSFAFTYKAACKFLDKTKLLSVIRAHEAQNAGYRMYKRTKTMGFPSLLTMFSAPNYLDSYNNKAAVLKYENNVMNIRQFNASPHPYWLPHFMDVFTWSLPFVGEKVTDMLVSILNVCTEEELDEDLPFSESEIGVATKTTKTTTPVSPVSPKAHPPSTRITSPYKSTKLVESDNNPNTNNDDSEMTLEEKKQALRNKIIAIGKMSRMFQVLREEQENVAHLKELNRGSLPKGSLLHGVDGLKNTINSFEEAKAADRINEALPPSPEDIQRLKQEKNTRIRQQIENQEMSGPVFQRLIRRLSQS
Description: blockers of CaCl2-induced CDRE-lacZ signaling – S. cerevisiae, luminescence, secondary, dose response (AID 2388).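 Further: yeast reporter cells carrying a calcineurin-responsive lacZ construct stimulated with calcium chloride; luminescent beta-galactosidase reporter signal in whole cells rather than isolated phosphatase activity; potency for inhibition where a drop in reporter signal means calcineurin blockade.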 Type of assay: functional, cell-based.

The target of assay [9] is ATP-dependent molecular chaperone HSP82 (Candida albicans (strain WO-1) (Yeast), UniProt C4YTQ8). Description: steroid-induced GRE reporter decrease in yeast – S. cerevisiae, luminescence, Hsp90 inhibitor project, dose response (AID 2400).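 Further: beta-galactosidase luminescence from glucocorticoid response element reporter as proxy for Hsp90 function; inhibitor potency where signal loss means Hsp90 inhibition.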 Type of assay: functional, cell-based.
Assay [10] has as its system BJ. Description: BJ-TERT fibroblast viability loss – cell-based, RAS-independent, luminescence, dose response (AID 1933). Type of assay: functional. The conditions noted are these: Homo sapiens.
Assay [11] relates to BJ. Description: cells. The format is functional, cell-based. The settings on record: Homo sapiens.
Assay [12] in a line: microbe, parasite or virus in culture. The conditions noted are these: Mycobacterium tuberculosis. The format is functional.
The subject of assay [13] is BJ. Description: BJ-TERT-LT-ST fibroblast viability loss – cell-based, RAS-independent, luminescence, dose response (AID 1935).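 Further: BJ fibroblasts immortalized with TERT plus LT and ST oncogenes.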 The format is functional. The conditions noted are these: Homo sapiens.
A short description of assay [14]: DRD fibroblast viability loss – cell-based, non-viral oncogenic, luminescence, dose response (AID 1934). Type of assay: functional. The conditions noted are these: Homo sapiens.
Assay [15] concerns the target Heat shock protein HSP 90-alpha (Homo sapiens, UniProt P07900). Type of assay: functional, organism-based.
Another assay concerns INS1. Description: INS-1E survival protection against cytokine death – cell-based, luminescence, retest, dose response (AID 449756).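 Further: cell death triggered by IL-1 beta plus TNF-alpha plus IFN-gamma mixture; protective hits raise ATP signal compared with cytokine alone wells.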 The settings on record: Rattus norvegicus. The format is functional.
Assay [16] in a line: viability of uninfected HEp-2 cells – cell-based, HTS, cytotoxicity control for RSV inhibitor project, dose response (AID 2410). Type of assay: functional. The settings on record: human respiratory syncytial virus.
Assay [17] can be described thus: Luminescence Cell-Based Dose Retest to Confirm Inhibitors of Cancer Stem Cells. [Related pubchem assays (depositor defined):AID2717, AID2721]. The conditions noted are these: Homo sapiens. The format is functional.
Assay [18] has as its target T4, Ubiquitin-conjugating enzyme E2 N (Homo sapiens, UniProt P61088).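 Further: Dose-response confirmation in a TR-FRET assay detecting UBC13-driven polyubiquitin chain formation, inhibition measured.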
T4 sequence (P61088 whole entry): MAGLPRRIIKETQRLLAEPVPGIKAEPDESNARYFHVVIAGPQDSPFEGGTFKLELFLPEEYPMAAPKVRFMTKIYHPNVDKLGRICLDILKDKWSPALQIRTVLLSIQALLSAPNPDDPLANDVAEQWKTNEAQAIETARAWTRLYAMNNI
Type of assay: functional.

The target of assay [19] is T5, DNA repair protein RAD52 homolog (Homo sapiens, UniProt P43351).
T5 sequence (P43351 whole entry): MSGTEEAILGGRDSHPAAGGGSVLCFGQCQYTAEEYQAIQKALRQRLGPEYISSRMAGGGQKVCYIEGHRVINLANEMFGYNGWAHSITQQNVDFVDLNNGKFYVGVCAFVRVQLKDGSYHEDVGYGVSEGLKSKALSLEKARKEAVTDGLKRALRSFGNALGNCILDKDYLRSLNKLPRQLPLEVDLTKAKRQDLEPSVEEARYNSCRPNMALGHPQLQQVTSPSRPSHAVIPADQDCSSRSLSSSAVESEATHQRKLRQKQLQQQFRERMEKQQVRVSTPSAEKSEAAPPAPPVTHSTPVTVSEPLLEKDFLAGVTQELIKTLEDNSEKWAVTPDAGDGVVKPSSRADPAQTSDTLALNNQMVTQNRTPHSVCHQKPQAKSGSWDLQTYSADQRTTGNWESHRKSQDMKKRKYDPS
Type of assay: functional, biochemical.

Assay [20] in a line: cells. Type of assay: functional, cell-based.
The nature of assay [21]: Trypanosoma cruzi growth suppression in host cells – NIH3T3 host cells, beta-gal luminescence, confirmation (AID 2044).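 Further: intracellular parasites grown in NIH/3T3 mouse fibroblasts as host cells; luminescent beta-galactosidase reporter signal from transgenic T. cruzi replicating inside host cells; inhibitors lower the luminescence signal.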 Type of assay: functional, cell-based.
Assay [22] can be described thus: cells. Type of assay: functional, cell-based. This is another data set of the same source.
Assay [23] in a line: NIH3T3 cell viability loss – ATP luminescence, mouse fibroblasts, counter-screen, dose response (AID 2010).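 Further: cells exposed to compound for about 90 hours before reading.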 Type of assay: functional, cell-based. A general note: A counterscreen serves to expose hits that act by an unwanted route or on another target.

Activity calls are given as the source filed them. For most assays here, no stated cut-off is given here; in the data, actives have a measured EC50 and inactives only a lower limit. Bounds are passed on as bounds.

Sequence of ATP-dependent molecular chaperone HSP82 (C4YTQ8 whole entry): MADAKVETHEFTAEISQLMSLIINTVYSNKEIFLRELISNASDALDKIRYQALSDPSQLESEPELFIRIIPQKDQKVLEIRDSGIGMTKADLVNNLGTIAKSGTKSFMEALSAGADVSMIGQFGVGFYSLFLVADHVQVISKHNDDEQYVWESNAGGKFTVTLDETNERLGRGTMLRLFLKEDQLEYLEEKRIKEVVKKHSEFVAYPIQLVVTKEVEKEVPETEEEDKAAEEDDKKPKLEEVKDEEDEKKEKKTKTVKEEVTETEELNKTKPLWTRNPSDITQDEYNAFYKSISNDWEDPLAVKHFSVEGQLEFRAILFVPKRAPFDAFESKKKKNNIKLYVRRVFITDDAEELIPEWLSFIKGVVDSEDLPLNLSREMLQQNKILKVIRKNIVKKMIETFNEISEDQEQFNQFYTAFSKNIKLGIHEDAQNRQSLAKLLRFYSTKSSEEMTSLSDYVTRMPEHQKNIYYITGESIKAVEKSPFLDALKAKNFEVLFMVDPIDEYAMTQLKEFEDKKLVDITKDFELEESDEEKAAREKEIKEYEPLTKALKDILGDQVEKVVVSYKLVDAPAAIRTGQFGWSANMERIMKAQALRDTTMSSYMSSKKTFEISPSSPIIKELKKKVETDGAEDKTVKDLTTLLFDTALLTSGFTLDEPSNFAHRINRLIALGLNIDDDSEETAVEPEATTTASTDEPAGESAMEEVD
Sequence of Dual specificity protein phosphatase 3 (P51452 whole entry): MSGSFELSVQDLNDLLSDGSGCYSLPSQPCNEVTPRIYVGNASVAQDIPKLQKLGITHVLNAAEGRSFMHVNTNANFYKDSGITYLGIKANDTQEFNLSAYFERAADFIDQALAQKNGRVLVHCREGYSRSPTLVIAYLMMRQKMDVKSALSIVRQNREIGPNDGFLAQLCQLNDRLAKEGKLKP

Take `Cc1ccccc1C(=O)O/N=C(\N)Cc1cccs1`: the EC50 is > 120 µM (not active) in [1], 67.6 µM (active) in assay [2] and 6.9 µM (active) in the assay with H4. Moreover, the concentration at half-maximal activity (AC50) in the assay with HeLa was 32 µM (active).
As for `O=C1NN(c2cccc(Br)c2)C(=O)/C1=C\c1ccc(N2CCOCC2)cc1`, the values for the IC50 in assay [3], in assay [4] and in assay [5] were 4.48 µM (active), 21.3 µM (inactive) and 2.55 µM (active), respectively.
With `CCCCC(=O)NC(=S)Nc1cccc(NC(=O)c2ccco2)c1`, the half-maximal effective concentration (EC50) is > 150 µM (inconclusive) in [6], 4.79 µM (active) in [7], > 180 µM (inactive) in [8] and > 160 µM (inactive) in assay [9].
For `C(C#CCCCCCCCCC[n+]1ccccc1)#CCCCCCCCCC[n+]1ccccc1`, the EC50 was > 150 µM (inactive) in assay [6]; 2.28 µM (inconclusive) with BJ [10]; > 150 µM (inconclusive) in the assay with BJ [11]; 0.05 µM (active) in assay [7]; > 180 µM (inactive) in assay [8]; 6.02 µM (active) in the assay on BJ [13]. The EC50 in [14] is 5.68 µM (active); in [9], > 150 µM (inactive). Besides, in [12], the CC50 is > 40 µM (active). Moreover, the results for the AC50 (in assay [15]; in the assay on INS1) were 3.58 µM (active) and 1.67 µM (active), respectively.
In the case of `NS(=O)(=O)c1ccc(NC(=S)N2CCC(Cc3ccccc3)CC2)cc1`, the IC50 in [3] is 3.13 µM (active); in assay [4], 38.8 µM (inactive); in assay [5], 1.03 µM (active).
In the case of `CCCn1nnc2sc3c(c2c1=O)CCC(C)C3` (stereo not given), the CC50 in [16] is > 50 µM (active). Further, the concentration for a half-maximal effect (EC50) is 41.1 µM (active) in assay [1], 0.528 µM (active) in [2] and 16.2 µM (active) in the assay with H4. Also, the AC50 with HeLa was 55.9 µM (active).
Consider `C=CCNC(S)=Nc1sc2c(c1C(=O)OCC)CC(C)(CC)OC2` (stereo not given), for which the 50% effective concentration (EC50) in [6] is > 150 µM (inconclusive); in [7] it was 0.889 µM (active); in assay [8], > 180 µM (inactive); in assay [9] it was 19.2 µM (active).
For the molecule `COc1ccc(C2=NN(c3nc4ccccc4s3)C(=O)C2)cc1`, the EC50 in assay [6] was > 160 µM (inconclusive); in [7], > 38 µM (not active); in [8], 3.92 µM (active); in assay [9], 1.4 µM (active). Further, in [17], the AC50 was 2.21 µM (active).
For the molecule `CN(C)CCOC(=O)c1ccc2[nH]c3c(c2c1)CSCC3`, the IC50 in assay [18] was > 20 µM (inactive). In [19], the AC50 was 0.792 µM (active).
Regarding `COc1cccc(/C=N/NC(=O)c2c(C)nc3ccc(Br)cn23)c1O`, the EC50 in [6] was > 160 µM (inactive); in the assay “cells [20]”, 7.35 µM (active); in assay [7] it was 0.483 µM (active); in assay [21], 3.06 µM (active); in “cells [22]”, 126 µM (active); in assay [8] it was > 180 µM (inactive). In addition, the 50% effective concentration (EC50) is > 60 µM (inconclusive) in assay [23] and 23.8 µM (active) in [9]. For the same molecule, the concentration at half-maximal activity (AC50) in the assay with INS1 is 0.842 µM (active).

Broadly, the EC50 is the concentration at which the effect is half-maximal. What is called AC50 is the concentration giving half of the maximal activity seen.

The values above are taken from ChEMBL document CHEMBL1201862, “PubChem BioAssay data set” (2004).
